Measured values from patent US20250304643A1, “PEPTIDE DUAL AGONISTS OF GIPR AND GLP2R” (BAINAN BIOTECH APS, priority 2021, published 2025).

Tests used:
human SNAP-GIPR = target: T1, human SNAP-GIPR (Homo sapiens, UniProt P48546); type: cell-based; set-up: AUC ± SD: unit not given beside the values
T1 construct: host or cells: HEK293A
T1 sequence (P48546 22-466): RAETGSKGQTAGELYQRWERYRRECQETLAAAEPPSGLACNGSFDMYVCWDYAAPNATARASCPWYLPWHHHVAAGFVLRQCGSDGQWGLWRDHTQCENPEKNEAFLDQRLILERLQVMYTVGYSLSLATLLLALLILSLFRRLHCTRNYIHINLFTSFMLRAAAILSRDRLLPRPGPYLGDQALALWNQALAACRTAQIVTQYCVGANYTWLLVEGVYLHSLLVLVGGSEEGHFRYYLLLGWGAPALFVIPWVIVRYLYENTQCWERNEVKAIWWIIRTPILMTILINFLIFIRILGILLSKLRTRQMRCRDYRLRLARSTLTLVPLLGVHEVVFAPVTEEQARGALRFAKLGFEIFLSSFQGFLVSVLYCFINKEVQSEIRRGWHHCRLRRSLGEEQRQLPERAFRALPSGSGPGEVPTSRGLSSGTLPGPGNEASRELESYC

[1] = tested on: bone turnover markers CTX (resorption) and P1NP (formation); assay: bone turnover markers CTX and P1NP in rats after SC injection; type: in vivo, rat
Procedure: Sprague Dawley female rats, age 10 w (Janvier Labs, France), n=4, were fasted from 06:00 until after final blood sample. A baseline blood sample was taken just before subcutaneous administration of compound at 10:00. Compounds were dissolved in 50 mM phosphate buffer, pH 7.5+0.1% Haemaccel. Dose: Compound no. 11 4248.5 μg/kg.
Blood samples were taken at 10:00, 14:00, 18:00 and 22:00. Plasma was obtained within 20 min after blood sampling and stored at −20C.
CTX and P1NP were measured using RatLaps (CTX-I) EIA and Rat/mouse P1NP EIA (Immunidiagnosticsystems, UK) according to protocols.
Data are presented using GraphPad Prism V9.3.0 as % of baseline as mean+/−SEM and analyzed by 2-way Anova with Sidaks multiple comparisons tests or by unpaired t-test.

rat GIPR = target: T2, rat GIPR (Rattus norvegicus, UniProt P43219); assay: HitHunter cAMP assay in transiently transfected COS-7 cells, rat GIPR; type: cell-based; settings: Emax normalized to highest concentration of endogenous ligand
T2 construct: expressed in transfected cells; host or cells: COS-7
T2 sequence (P43219 19-455): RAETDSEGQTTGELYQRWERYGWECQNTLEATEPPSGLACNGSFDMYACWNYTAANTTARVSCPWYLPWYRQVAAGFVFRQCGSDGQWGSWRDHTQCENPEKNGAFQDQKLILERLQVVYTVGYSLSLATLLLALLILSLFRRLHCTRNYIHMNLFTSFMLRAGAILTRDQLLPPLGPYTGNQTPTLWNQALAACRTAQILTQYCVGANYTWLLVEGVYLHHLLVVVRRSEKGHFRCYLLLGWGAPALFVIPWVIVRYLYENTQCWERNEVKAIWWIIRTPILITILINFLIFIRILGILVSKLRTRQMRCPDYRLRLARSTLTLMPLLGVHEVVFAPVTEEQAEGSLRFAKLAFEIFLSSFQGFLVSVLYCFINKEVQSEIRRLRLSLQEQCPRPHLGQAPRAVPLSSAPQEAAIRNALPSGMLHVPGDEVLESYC
Procedure: (§1) The next day the assay was initiated by washing with HEPES buffered saline (HBS) and followed by an incubation step with assay buffer (HBS added 1 mM isobutyl-1-methylxanthine (IBMX)) for 30 min at 37° C. The ligands were then added and incubated for an additional 30 min at 37° C. After ligand incubation, the HitHunter® CAMP assay (Eurofins DiscoverX, Fremont, […] USA) was carried out according to the manufacturer's instructions. Luminescence was measured by PerkinElmer™ EnVision 2014 Multilabel Reader (PerkinElmer, Waltham, MA). The potencies (EC50 values) were determined by nonlinear regression using GraphPad Prism 9 (San Diego, California, USA). Sigmoid curves were fitted logistically. The efficacies (Emax values) were determined by normalization to the highest concentration applied of the endogenous ligand for each receptor.

rat GLP-2R = target: T3, rat GLP-2R (Rattus norvegicus, UniProt Q9Z0W0); assay: HitHunter cAMP assay in transiently transfected COS-7 cells, rat GLP-2R; type: cell-based; settings: Emax normalized to highest concentration of endogenous ligand
T3 construct: expressed in transfected cells; host or cells: COS-7
T3 sequence (Q9Z0W0 1-550): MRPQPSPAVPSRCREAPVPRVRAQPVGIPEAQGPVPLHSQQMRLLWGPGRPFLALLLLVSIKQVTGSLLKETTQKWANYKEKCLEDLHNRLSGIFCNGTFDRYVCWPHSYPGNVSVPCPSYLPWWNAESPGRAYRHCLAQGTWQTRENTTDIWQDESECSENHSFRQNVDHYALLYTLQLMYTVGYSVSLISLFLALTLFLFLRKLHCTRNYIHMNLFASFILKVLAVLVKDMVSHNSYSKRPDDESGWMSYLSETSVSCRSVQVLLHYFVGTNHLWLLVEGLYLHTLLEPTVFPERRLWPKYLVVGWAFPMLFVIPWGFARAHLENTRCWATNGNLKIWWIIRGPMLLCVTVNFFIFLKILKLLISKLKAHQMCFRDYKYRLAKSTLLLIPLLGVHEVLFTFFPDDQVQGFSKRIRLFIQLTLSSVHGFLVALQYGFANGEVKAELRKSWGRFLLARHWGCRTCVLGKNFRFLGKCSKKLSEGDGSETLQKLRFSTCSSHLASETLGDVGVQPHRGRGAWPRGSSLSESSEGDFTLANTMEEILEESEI
Procedure: as §1

human GLP-1R = target: T4, human GLP-1R (Homo sapiens, UniProt P43220); assay: HitHunter cAMP assay in transiently transfected COS-7 cells, human GLP-1R; type: cell-based; settings: Emax normalized to highest concentration of endogenous ligand; Table 3
T4 construct: host or cells: COS-7
Procedure: as §1

macaque GIPR = assay: HitHunter cAMP assay in transiently transfected COS-7 cells, macaque GIPR; type: cell-based
Procedure: as §1

human GIPR [2] = target: T5, human GIPR (Homo sapiens, UniProt P48546); type: cell-based; set-up: host or cells: COS-7; settings: Emax normalized to highest concentration of endogenous ligand; Table 2
T5 sequence (P48546 22-466): T1 sequence (P48546 22-466)

human GIPR [3] = target: T5, human GIPR; type: cell-based; set-up: host or cells: HEK293; settings: beta-arrestin 2 recruitment; for AUC ± SD: AUC of sigmoid curves up to 100 nM
Procedure: HEK293 cells were cultured at 10% CO2 and 37° C. in DMEM-GlutaMAX™-I supplemented with 10% FBS, 180 units/mL penicillin and 45 g/mL streptomycin. These cells were transfected using PEI for the beta-arrestin recruitment assay as described in detail in (van der Velden et al., 2021).
HEK293 cells were transiently transfected with human GIPR, the donor Rluc8-Arrestin-3-Sp1 (beta-arrestin 2 recruitment), the acceptor mem-linker-citrine-SH3, and the GPCR kinase 2 (GRK2). Two days following transfection, the cells were washed with PBS and resuspended in PBS with 5 mM glucose. Then, 85 μL of the cell suspension solution was added to each well of a white 96-well plate followed by the addition of PBS with 5 μM coelenterazine-h. Following 10 min incubation, increasing concentrations of ligands were added and incubated for an additional 30 min. Luminescence was measured with the Berthold Technologies Mithras Multilabel Reader (Rluc8 at 485±40 nm and YFP at 530±25 nm). The potencies (EC50 values) were determined by nonlinear regression using GraphPad Prism 9 (San Diego, California, USA). Sigmoid curves were fitted logistically. The efficacies (Emax values) were determined by normalization to the highest concentration applied of the endogenous ligand (GIP) for the GIPR.

human GIPR [4] = target: T5, human GIPR; settings: 10 nM ligand for 90 min, then 125I-GIP(1-42) labelling; FIG. 3
Procedure: COS-7 cells were cultured at 10% CO2 and 37° C. in Dulbecco's Modified Eagle Medium (DMEM) 1885 supplemented with 10% fetal bovine serum (FBS), 2 mM glutamine, 180 units/ml penicillin, and 45 g/ml streptomycin.
The following day, the media of the cells were changed to DMEM supplemented 2% FBS and preincubated either with or without 10 nM ligand for 90 min. […] After incubation, the cells were washed twice in 100 μl per well ice-cold binding buffer and lysed using 175 μl per well of 200 mM NaOH with 1% SDS for 30 min. The samples were analyzed by the Wizard Gamme Counter (PerkinElmer, Waltham, MA). Data was analyzed by comparing the counts measured from the ligand preincubated and non-preincubated cells.

T4 sequence (P43220 24-463): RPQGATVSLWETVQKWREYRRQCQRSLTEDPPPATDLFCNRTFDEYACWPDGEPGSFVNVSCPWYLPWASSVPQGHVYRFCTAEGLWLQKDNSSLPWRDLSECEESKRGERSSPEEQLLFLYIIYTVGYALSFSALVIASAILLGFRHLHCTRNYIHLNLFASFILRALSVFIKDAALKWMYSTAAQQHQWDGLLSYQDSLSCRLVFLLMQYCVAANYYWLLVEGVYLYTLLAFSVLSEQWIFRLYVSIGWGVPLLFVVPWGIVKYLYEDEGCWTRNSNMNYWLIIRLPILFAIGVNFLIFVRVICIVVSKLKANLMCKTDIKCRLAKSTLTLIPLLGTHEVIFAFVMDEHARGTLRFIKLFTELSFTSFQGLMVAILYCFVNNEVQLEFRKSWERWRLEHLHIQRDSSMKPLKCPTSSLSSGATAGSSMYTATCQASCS

Row | Substance | AUC ± SD (human SNAP-GIPR) | Emax ± SD (%) (human SNAP-GIPR; GIPR internalization, NA = no activity) | formation marker P1NP, % of baseline ([1]; female rats, SC 4248.5 μg/kg, time 14:00 and 18:00, FIG. 2B) | resorption marker CTX, % of baseline ([1]; female rats, SC 4248.5 μg/kg, time point 14:00, p-value=0.08, FIG. 2A) | CTX AUC ([1]; rat, in vivo, sc) | rGIPR Efficacy (%) (rat GIPR) | rGLP-2R Efficacy (%) (rat GLP-2R) | Efficacy GLP-1R (human GLP-1R) | maGIPR Efficacy (%) (macaque GIPR; Emax normalized to highest concentration of the endogenous ligand, COS-7 cells) | maGIPR pEC50 (macaque GIPR; cAMP, transiently transfected COS-7 cells) | Efficacy GIPR (human GIPR [2]) | AUC ± SD (human GIPR [3]) | Emax ± SD (%) (human GIPR [3]; normalized to highest concentration of GIP, NA = no activity) | GIPR expression at the cell surface following ligand preincubation (human GIPR [4])
1 | H-Aib-DGTFISDY-K(γGlu-C16)-TILDNLAARDFINWLIQTKITK-OH [Compound no. 11] | 19 ± 2 | 24 ± 6 | increase | reduced (ns) increase | tendency towards a reduction | 107.0 | 104.0 | 11 | 92.5 | 9.0 | 115 | 61 ± 14 | 41 ± 6 | 
2 | YAEGTFISDYSIAMDKIHQQDFVNWLLAQKGKKNDWKHNITQ [hGIP, reference compound] | 204 ± 3 |  |  |  |  |  |  |  |  |  |  | 223 ± 16 |  | downregulation of the GIPR from the cell surface
